Source: US20030165570A1, “Pharmaceutical compositions containing micronized bicyclic drugs” (SmithKline Beecham p.l.c., priority 1997, published 2003)
Values after ≈ are worked out from the molar mass of the structure shown.

Experiment: Aqueous solubility
Assay type: physicochemical
From the text: The compounds used in this invention have a very low solubility in water.

USP solubility classification: virtually insoluble | aqueous solubility: 8 µg/mL (≈ 22.4 µM)
SMILES: CC(=O)c1ccc2c(c1)[C@H](NC(=O)c1ccc(F)cc1)[C@@H](O)C(C)(C)O2 (relative stereo) [Compound 1, trans-6-acetyl-4S-(4-fluorobenzoylamino)-3,4-dihydro-2,2-dimethyl-2H-1-benzopyran-3R-ol]
